Reference: article PMC5988656, “Phase I studies of AZD1208, a proviral integration Moloney virus kinase inhibitor in solid and haematological cancers” (British Journal of Cancer, 2018)

Experiments:
Type in all cases: in vivo, human
[1] = test system: AML blasts; assay: RPPA protein profiling in AML blasts during therapy; conditions: samples from six patients
Protocol: In the AML study, a protein profiling analysis was carried out on primary blasts obtained from peripheral blood of patients (n = 6) before and during therapy with AZD1208. Due to time-sensitive aspects of the analysis, only patients from the MD Anderson Cancer Center (MDACC, Houston, TX, USA) were eligible. Whole blood was collected in heparinised tubes. Leukaemia cells were then isolated using Ficoll–Hypaque (specific gravity, 1.086; Life Technologies, Grand Island, NY, USA) density gradient separation, as previously described.[15] Cell number and mean cell volume were determined using a Coulter Channelyzer (Coulter Electronics, Hialeah, FL, USA).
AML blasts isolated from patients during therapy with AZD1208 were harvested and submitted for reverse phase protein array (RPPA) analysis to evaluate protein level changes across a set of 171 antibodies,[16] graphed using GraphPad Prism software (GraphPad Software, Inc., San Diego, CA, USA).

[2] = test system: relapsed/refractory AML; assay: AML study: antileukaemic activity (IWG response criteria)
Text: The antileukaemic activity in AML was according to the International Working Group (IWG) response criteria for AML.[17] Response criteria were modified such that an M-1 marrow was defined as 1% to ≤5% and a partial response as >5% to 25%.[18]

[3] = test system: pBAD S112; assay: PD: phosphorylated BAD at S112 by MesoScale Discovery ELISA, AML study
Protocol: For AZD1208 PD evaluations, bone marrow aspirates were collected (pretreatment and Cycle 1, Day 1, 2–6 h following administration of AZD1208) and peripheral blood samples were collected (pretreatment on Cycle 1, Day 1; and on-treatment at Cycle 1, Day 1 at 3, 6 and 24 h post-dose; Cycle 1, Day 14 at pre-dose, 3 and 6 h post-dose). Mononuclear cells were isolated, and protein lysates prepared, for subsequent analysis of phosphorylated BAD at S112 by MesoScale Discovery ELISA and phosphorylation of 4E-BP1 at S65 by NanoPro immunoassay [unpublished data: McEachern et al. 2018, manuscript in preparation]. Samples were considered evaluable when the baseline biomarker levels were above the background signal (as defined by buffer-only negative control samples) and within the linear range of assay. Additionally, only blood samples containing detectable blasts were considered for analysis.

[4] = test system: patients with AML or advanced solid tumours; assay: Both dose-escalation studies pooled: adverse events
Protocol: Safety and tolerability were assessed from the time of informed consent until the end of follow-up (defined as 30 and 28 days after study treatment was discontinued for the AML and solid tumour studies, respectively) by evaluation of adverse events (AEs), vital signs, ECGs and laboratory assessments. The CTCAE (version 4.0) was utilised to grade all AE events.
AEs were summarised by Medical Dictionary for Regulatory Activities (MedDRA) system organ class, MedDRA preferred term and CTCAE grade. Summary statistics of mean, median, standard deviation, minimum, maximum and number of observations were used.

[5] = Investigator assessed, 120 mg, n=4
[6] = Investigator assessed, 240 mg, n=6
[7] = Investigator assessed, 480 mg, n=6
[8] = Investigator assessed, 700 mg, n=7
[9] = Investigator assessed, 900 mg, n=9
[10] = Modified Cheson criteria, 120 mg, n=4
[11] = Modified Cheson criteria, 240 mg, n=6
[12] = Modified Cheson criteria, 480 mg, n=6
[13] = Modified Cheson criteria, 700 mg, n=7
[14] = Modified Cheson criteria, 900 mg, n=9

N[C@@H]1CCCN(c2c(/C=C3\SC(=O)NC3=O)cccc2-c2ccccc2)C1 [AZD1208]
98.5%: Patients who experienced adverse events [4]
four: Patients with reductions in BAD S112 (RPPA) [1]
0 n (%): Best response: CR [2, 5] | Best response: CRi [2, 5] | Best response: Morphologic leukaemia free [2, 5] | Best response: Partial remission [2, 5] | Best response: CR [2, 6] | Best response: CRi [2, 6] | Best response: Morphologic leukaemia free [2, 6] | Best response: Partial remission [2, 6] | Best response: CR [2, 7] | Best response: CRi [2, 7] | Best response: Morphologic leukaemia free [2, 7] | Best response: Partial remission [2, 7] | Best response: CR [2, 8] | Best response: CRi [2, 8] | Best response: Morphologic leukaemia free [2, 8] | Best response: Partial remission [2, 8] | Best response: CR [2, 9] | Best response: CRi [2, 9] | Best response: Morphologic leukaemia free [2, 9] | Best response: Partial remission [2, 9] | Best response: CR [2, 10] | Best response: CRi [2, 10] | Best response: Morphologic leukaemia free [2, 10] | Best response: Partial remission [2, 10] | Best response: CR [2, 11] | Best response: CRi [2, 11] | Best response: Morphologic leukaemia free [2, 11] | Best response: Partial remission [2, 11] | Best response: CR [2, 12] | Best response: CRi [2, 12] | Best response: Morphologic leukaemia free [2, 12] | Best response: Partial remission [2, 12] | Best response: CR [2, 13] | Best response: CRi [2, 13] | Best response: Morphologic leukaemia free [2, 13] | Best response: Partial remission [2, 13] | Best response: CR [2, 14] | Best response: CRi [2, 14] | Best response: Morphologic leukaemia free [2, 14] | Best response: Partial remission [2, 14]
3 (50.0) n (%): Best response: Non-response [2, 6] | Best response: Non-response [2, 7]
3 (75.0) n (%): Best response: Non-response [2, 5]
three: Patients with reductions in 4E-BP1 S65 (RPPA) [1]
7 (100) n (%): Best response: Non-response [2, 13]
6 (100) n (%): Best response: Non-response [2, 11] | Best response: Non-response [2, 12]
1 (14.3) n (%): Best response: Non-response [2, 8]
59.4%: Discontinued study treatment due to a lack of therapeutic response, patients ([2]; 32 eligible patients)
9 (100) n (%): Best response: Non-response [2, 14]
4 (100) n (%): Best response: Non-response [2, 10]
2 (22.2) n (%): Best response: Non-response [2, 9]
92.5%: Patients with gastrointestinal adverse events [4]
7/17: Patients with reductions in pBAD S112 ([3]; evaluable bone marrow samples, single dose)
9/10: Patients with ≥50% reduction from baseline of pBAD S112 ([3]; peripheral blood, all dose levels)
no clinical responses: Clinical responses according to IWG criteria ([2]; all doses)
